Source: patent publication US5145869A, “Phenylsulfonylalkanoic acid compounds and pharmaceuticals thereof” (Kissei Pharmaceutical Co., Ltd., priority 1991, dated 1992)

What was measured:
[1] = molecular target: T1, CCK-Receptor (Rattus norvegicus, UniProt P30551); assay: CCK-Receptor Binding Assay in Pancreas; design: species or system Male Wistar rats; settings: inhibition of specific 125I-CCK-8 (30 pM) binding, rat pancreatic plasma membranes, 37° C., 30 minutes, pH 7.4
T1 construct: Pancreatic plasma membranes were prepared by the method of Chang et al; from tissue; host or cells: pancreatic plasma membranes of male Wistar rats
T1 sequence (P30551 1-444): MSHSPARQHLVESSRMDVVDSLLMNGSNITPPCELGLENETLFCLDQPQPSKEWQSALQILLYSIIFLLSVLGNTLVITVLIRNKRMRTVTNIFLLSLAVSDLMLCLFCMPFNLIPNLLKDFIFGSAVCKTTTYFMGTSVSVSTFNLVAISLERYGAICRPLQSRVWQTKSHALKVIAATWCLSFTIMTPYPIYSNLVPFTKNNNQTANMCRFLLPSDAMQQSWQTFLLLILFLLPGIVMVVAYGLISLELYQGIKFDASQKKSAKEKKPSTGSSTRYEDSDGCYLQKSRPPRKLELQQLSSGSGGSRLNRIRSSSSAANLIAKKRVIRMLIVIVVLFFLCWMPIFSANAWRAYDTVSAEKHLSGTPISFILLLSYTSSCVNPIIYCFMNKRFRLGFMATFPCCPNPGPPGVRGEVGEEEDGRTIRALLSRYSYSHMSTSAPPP
Protocol: CCK-Receptor Binding Assay in Pancreas
Pancreatic plasma membranes were prepared by the method of Chang et al. (Molecular Pharmacology, Vol. 30, p. 212-, 1986). Male Wistar rats were sacrificed by decapitation and the pancreas was removed. The pancreas was dissected free from adipose tissue and minced in 50 volumes ice-cold Tris-HCl buffer (50 mM, pH 7.4 at 37° C.). Homogenization was performed using ultra disperser and the homogenate was centrifuged at 50,000×g for 10 minutes. The pellet was washed by resuspension in the same volume of fresh Tris-HCl buffer and again centrifuged as above. The final pellet was suspended in assay buffer (50 mM Tris-HCl, 5 mM MgCl2, 5 mM dithiothreitol, 2 mg/ml of bovine serum albumin, and 0.14 mg/ml of bacitracin), and used as receptor sources for binding assay.
Thirty pM ^125 I-CCK-8 (final concentration), test drug or vehicle (for total binding) or 10^-6 M CCK-8 (for nonspecific binding) were added to the assay medium containing pancreatic plasma membranes (0.5 mg of original wet weight/ml). After incubation at 37° C. for 30 minutes, the assay medium was filtrated under reduced pressure through glass fiber filter and washed four times with 4 ml of ice-cold Tris-HCl buffer. The radioactivity trapped on the filter was counted by γ-counter (Packard 5650).
Specific binding was defined as the radioactivity bound after subtracting nonspecific binding determined in the presence of 10^-6 M unlabeled CCK-8. IC50 value was calculated from inhibition percentage of specific binding by each test drug.

[2] = test system: amylase secretion stimulated by CCK-8; assay: Effect on Amylase Secretion in Rats; type: in vivo, Male Wistar rats; settings: Rattus norvegicus, intraduodenal administration 30 minutes before CCK-8 (10 μg/kg, subcutaneous), anesthetized rats
Protocol: Effect on Amylase Secretion in Rats
Male Wistar rats were anesthetized with urethane (1.5 g/kg, S.C.), and tracheal cannula was inserted. Biliopancreatic juice was collected from the cannula which had been inserted into the common bile duct. Thirty minutes after intraduodenal administration of test drug, amylase secretion was stimulated by subcutaneous injection of CCK-8 (10 μg/kg). Amylase concentration in the sample collected every 30 minutes during experiment was assayed using Amylase B Test (Wako), and ED50 value was calculated.

[3] = test system: gallbladder contraction induced by CCK-8; assay: CCK-Antagonism in Isolated Gallbladder; type: cell-based, male Hartley guinea-pig; settings: Cavia porcellus; antagonism of gallbladder strip contraction induced by 10^-8 M CCK-8, 37° C.
Protocol: CCK-Antagonism in Isolated Gallbladder
Gallbladder strips isolated from male Hartley guinea-pig were prepared and suspended in Magnus bath filled with Krebs solution (1 g of initial tension). The solution kept at 37° C. was aerated with a mixture of 95% O2 and 5% CO2. The isometric contraction of strips was recorded through a force-displacement transducer. Antagonism by test drugs against gallbladder contraction induced by 10^-8 M CCK-8 was examined and IC50 value was calculated.

Row | Structure (SMILES) | IC50 [1] [nM] | ED50 [2] [mg/kg] | IC50 [3] [nM]
1 | CCCCCN(CCCCC)C(=O)C(CCC(=O)OC)CS(=O)(=O)c1ccc(Cl)c(Cl)c1 (racemic) [Compound 1, Methyl 5-(3,4-dichlorophenylsulfonyl)-4-(N,N-dipentylcarbamoyl)pentanoate] | 880 | – | –
2 | CCCCCN(CCCCC)C(=O)C(CCC(=O)O)CS(=O)(=O)c1ccc(Cl)c(Cl)c1 (racemic) [Compound 19, 5-(3,4-Dichlorophenylsulfonyl)-4-(N,N-dipentylcarbamoyl)pentanoic acid] | 200 | 2.2 | 11000
3 | CCCCCN(CCCOC)C(=O)C(CCC(=O)O)CS(=O)(=O)c1ccc(Cl)c(Cl)c1 (racemic) [Compound 22, 5-(3,4-dichlorophenylsulfonyl)-4-[N-(3-methoxypropyl)-N-pentylcarbamoyl]pentanoic acid] | 230 | 9.5 | 3400
4 | CCCCCN(CCCCC)C(=O)C(CCC(=O)O)CS(=O)(=O)c1cccc(Cl)c1 (racemic) [Compound 27] | 4700 | – | –
5 | CCCCCN(CCCCC)C(=O)C(CCC(=O)O)CS(=O)(=O)c1cccc(Br)c1 (racemic) [Compound 28] | 3000 | – | –
6 | CCCCCN(CCCCC)C(=O)C(CC(=O)O)CS(=O)(=O)c1ccc(Cl)c(Cl)c1 (racemic) [Compound 29] | 95 | – | –
7 | CCCCCN(CCCCC)C(=O)C(CCCC(=O)O)CS(=O)(=O)c1ccc(Cl)c(Cl)c1 (racemic) [Compound 30] | 230 | – | –
8 | CCCCN(C)C(=O)C(CCC(=O)O)CS(=O)(=O)c1ccc(Cl)c(Cl)c1 (racemic) [Compound 31] | 8800 | – | –
9 | CCCCN(CCCC)C(=O)C(CCC(=O)O)CS(=O)(=O)c1ccc(Cl)c(Cl)c1 (racemic) [Compound 32] | 280 | – | –
10 | CCCCCCN(CCCCCC)C(=O)C(CCC(=O)O)CS(=O)(=O)c1ccc(Cl)c(Cl)c1 (racemic) [Compound 33] | 59 | – | –
11 | CCCCCCCN(CCCCCCC)C(=O)C(CCC(=O)O)CS(=O)(=O)c1ccc(Cl)c(Cl)c1 (racemic) [Compound 34] | 430 | – | –
12 | CC(C)CCN(CCC(C)C)C(=O)C(CCC(=O)O)CS(=O)(=O)c1ccc(Cl)c(Cl)c1 (racemic) [Compound 35] | 130 | – | –
13 | CCCCCN(CCCCC)C(=O)C(CCC(=O)O)CS(=O)(=O)c1ccc(Cl)c(Cl)c1 (single isomer, unassigned) [Compound 20] | 110 | 4.7 | 5100
14 | CCCCCN(CCCCC)C(=O)C(CCC(=O)O)CS(=O)(=O)c1ccc(Cl)c(Cl)c1 (single isomer, unassigned) [Compound 21] | 1100 | – | –
15 | CCCCCN(CCCOC)C(=O)C(CCC(=O)O)CS(=O)(=O)c1ccc(Cl)c(Cl)c1 (single isomer, unassigned) [Compound 23] | 290 | – | –
16 | CCCCCN(CCCOC)C(=O)C(CCC(=O)O)CS(=O)(=O)c1ccc(Cl)c(Cl)c1 (single isomer, unassigned) [Compound 24] | 4000 | – | –
17 | CCCCCN(CCCCC)C(=O)C(CC(=O)OC)CS(=O)(=O)c1ccc(Cl)c(Cl)c1 (stereo not drawn) [Compound 11] | 980 | – | –

Row | Structure (SMILES) | IC50 [1] [nM] | ED50 [2] [mg/kg] | IC50 [3] [nM]
18 | CCCCCN(CCCCC)C(=O)C(CCCC(=O)OC)CS(=O)(=O)c1ccc(Cl)c(Cl)c1 (stereo not drawn) [Compound 12] | 4800 | – | –
19 | CCCCCN(CCCCC)C(=O)C(CCC(=O)OCC)CS(=O)(=O)c1ccc(Cl)c(Cl)c1 (stereo not drawn) [Compound 18] | 1100 | – | –
20 | CCCCCN(CCCCC)C(=O)C(CCC(=O)O)CS(=O)(=O)c1cc(Cl)cc(Cl)c1 (stereo not drawn) [Compound 25] | 1500 | – | –
21 | CCCCCN(CCCCC)C(=O)C(CCC(=O)O)CS(=O)(=O)c1ccc(Cl)cc1 (stereo not drawn) [Compound 26] | 1000 | – | –
22 | CCCCCCN(CCCCc1ccccc1)C(=O)C(CCC(=O)OC)CS(=O)(=O)c1ccc(Cl)c(Cl)c1 (stereo not drawn) [Compound 40] | 5800 | – | –
23 | COC(=O)CCC(CS(=O)(=O)c1ccc(Cl)c(Cl)c1)C(=O)N(C)Cc1ccccc1 (stereo not drawn) [Compound 41, methyl 4-(N-benzyl-N-methylcarbamoyl)-5-(3,4-dichlorophenylsulfonyl)pentanoate] | 3500 | – | –
24 | CCCCCN(CCc1ccccc1)C(=O)C(CCC(=O)O)CS(=O)(=O)c1ccc(Cl)c(Cl)c1 (stereo not drawn) [Compound 42, 5-(3,4-dichlorophenylsulfonyl)-4-(N-pentyl-N-phenethylcarbamoyl)pentanoic acid] | 210 | – | –
25 | CCCCCN(CCCc1ccccc1)C(=O)C(CCC(=O)O)CS(=O)(=O)c1ccc(Cl)c(Cl)c1 (stereo not drawn) [Compound 43] | 110 | – | –
26 | O=C(O)CCC(CS(=O)(=O)c1ccc(Cl)c(Cl)c1)C(=O)N(CCc1ccccc1)CCc1ccccc1 (stereo not drawn) [Compound 44] | 230 | – | –
27 | O=C(O)CCC(CS(=O)(=O)c1ccc(Cl)c(Cl)c1)C(=O)N(CCCc1ccccc1)CCCc1ccccc1 (stereo not drawn) [Compound 45] | 1000 | – | –
28 | CCCCCCN(CCCCc1ccccc1)C(=O)C(CCC(=O)O)CS(=O)(=O)c1ccc(Cl)c(Cl)c1 (stereo not drawn) [Compound 46] | 570 | – | –
29 | CN(Cc1ccccc1)C(=O)C(CCC(=O)O)CS(=O)(=O)c1ccc(Cl)c(Cl)c1 (stereo not drawn) [Compound 47] | 1800 | – | –
30 | CCCCCN(CCCCC)C(=O)C(CCC(=O)O)CS(=O)(=O)c1ccc(C)c(C)c1 (stereo not drawn) [Compound 48] | 290 | – | –
31 | CCCCCN(CCCCC)C(=O)C(CCC(=O)O)CS(=O)(=O)c1ccc(C)cc1 (stereo not drawn) [Compound 49] | 3400 | – | –
32 | CCCCCN(CCCCC)C(=O)C(CCC(=O)O)CS(=O)(=O)c1ccc([N+](=O)[O-])cc1 (stereo not drawn) [Compound 50] | 730 | – | –
33 | CCCCCN(CCCCC)C(=O)C(CCC(=O)O)CS(=O)(=O)c1ccc(C(C)=O)cc1 (stereo not drawn) [Compound 51, 5-(4-Acetylphenylsulfonyl)-4-(N,N-dipentylcarbamoyl)pentanoic acid] | 2000 | – | –
